Measurements as given in patent US20140259223A1, “METHODS FOR PRODUCING CINNAMOLIDE AND/OR DRIMENDIOL” (Keygene N.V., priority 2011, published 2014).

Columns and labels:
Myzus persicae = assay: dual-choice insect feeding assay on tomato leaf disks, aphids; type: in vivo; conditions: for effect on feeding at the lowest concentration used: lowest concentration used (113 μg gFW^−1 for cinnamolide)
Procedure: (§1) The insects used in this study were the silverleaf whitefly Bemisia tabaci (genotype B) and the green peach aphid Myzus persicae. Whiteflies were reared on tomato (Moneymaker cultivar) in a greenhouse at 26° C., at 60% relative humidity with a photoperiod of 16 h light and 8 h dark. To perform the assays, adult flies of both genders were collected from leaves with an aspirator. They were cold-anesthetized at 7° C. in a 3 cm diameter plastic cylinder covered with Parafilm® for 5 min, before being released into the Petri dish at the start of the dual-choice assay, to ensure they would not fly out before the dishes were sealed. Apterous (without wings) aphid adults were collected from Chinese cabbage (Brassica rapa L. subspecies pekinensis), on which they had been reared at room temperature in ambient light. They were collected in 2 ml test tubes and starved for about 30 min before inoculating them in the dishes. In the dual-choice assays, insects were presented with circular tomato leaf areas coated with either 50% ethanol in water (control) or a solution of cinnamolide in 50% ethanol in water (treatment; two disks with each solution). Cinnamolide was firstly dissolved in 96% ethanol at a concentration of 2 mg mL^−1; subsequently an equal volume of water was added bringing the maximum concentration used to 1 mg mL^−1. Further dilutions were performed adding directly one volume of 50% ethanol in water to one volume of the previous concentration. The three concentrations used were therefore 1 mg mL^−1, 500 μg mL^−1 and 250 μg mL^−1. […] The assays were carried on for either 18 or 24 h and the feeding insects counted at 30 min, 1 h, 2 h, 6 h, and 18 h for whiteflies and at 30 min, 1 h, 2 h, 6 h, and 24 h for aphids. […] To convert data from the concentration in ethanol, expressed as mg mL^−1, into concentration expressed as mg gFW^−1, the value must be multiplied by 15 (the volume in μL applied on each disk) and divided by 0.034 (mass of leaf disk in grams). […]

Bemisia tabaci = assay: dual-choice insect feeding assay on tomato leaf disks, whiteflies; type: in vivo
Procedure: as §1, with “dishes.” for “dishes. In the dual-choice assays, insects were presented with circular tomato leaf areas coated with either 50% ethanol in water (control) or a solution of cinnamolide in 50% ethanol in water (treatment; two disks with each solution). Cinnamolide was firstly dissolved in 96% ethanol at a concentration of 2 mg mL^−1; subsequently an equal volume of water was added bringing the maximum concentration used to 1 mg mL^−1. Further dilutions were performed adding directly one volume of 50% ethanol in water to one volume of the previous concentration. The three concentrations used were therefore 1 mg mL^−1, 500 μg mL^−1 and 250 μg mL^−1.”

[1] = 450, 225 and 113 μg gFW^−1, 6 h

## CC1(C)CCC[C@]2(C)[C@@H](C=O)C(C=O)=CC[C@@H]12 [polygodial, reference compound]
Myzus persicae
  effect on feeding at the lowest concentration used: attractant (phagostimulant) effect

## CC1(C)CCC[C@]2(C)[C@H]3COC(=O)C3=CC[C@@H]12 [cinnamolide]
Myzus persicae; [1]
  Antifeedant Index (Al %), dose response: increases with the increasing concentrations applied
Myzus persicae
  effect on feeding at the lowest concentration used: attractant (phagostimulant) effect
Bemisia tabaci; [1]
  Antifeedant Index (Al %), dose response: increases with the increasing concentrations applied
Bemisia tabaci; lowest concentration used (113 μg gFW^−1)
  attractant (phagostimulant) effect at the lowest concentration used: not seen
